Columns and labels:
[1] = molecular target: complex III2 (CIII) of the trimeric supercomplex (III2IV1) from the cardiolipin-lacking CRD1∆ S. cerevisiae mutant (S. cerevisiae (endogenous in strain YEB100)) (UniProt P07256); test: cryo-EM structure; trimeric SC (III2IV1) from the CRD1∆ strain, purified by His-Trap (Cox4-His10) and Superose 6 in 0.05% digitonin; Titan Krios, with added 30° tilt data; 3.3 Å
[2] = system: T1, CRD1∆ SC (III2IV1 trimeric respiratory supercomplex); test: oxygen consumption, Oroboros respirometry; assay type: biochemical, Saccharomyces cerevisiae; settings: 100 μM DQH2, 50 μM cytochrome c, 0.05% digitonin, pH 7.1, 30 °C
T1 construct: gene COB; native trimer (complex III dimer plus one complex IV) from cardiolipin-lacking strain, Cox4 with C-terminal His10, subunit Qcr10 lost; digitonin, His-Trap and SEC; with Cytochrome b-c1 complex subunit 1, mitochondrial; Cytochrome b-c1 complex subunit 2, mitochondrial; Cytochrome b-c1 complex subunit 6, mitochondrial; Cytochrome b-c1 complex subunit 7, mitochondrial; Cytochrome b-c1 complex subunit 9, mitochondrial; Cytochrome c oxidase subunit 2; Cytochrome c oxidase subunit 3; Cytochrome c oxidase subunit 4, mitochondrial; Cytochrome c oxidase subunit 6, mitochondrial; Cytochrome c oxidase subunit 7, mitochondrial; Cytochrome c oxidase subunit 8, mitochondrial; Cytochrome c oxidase subunit 9, mitochondrial; Cytochrome c oxidase subunit 12, mitochondrial; Cytochrome c oxidase subunit 13, mitochondrial; Cytochrome c oxidase subunit 26, mitochondrial

[3] = system: T2, WT SC (IV1III2IV1; III2IV2 tetrameric respiratory supercomplex); test: oxygen consumption, Oroboros respirometry; assay type: biochemical, Saccharomyces cerevisiae; settings: 100 μM DQH2, 50 μM cytochrome c, 0.05% digitonin, pH 7.1, 30 °C
T2 construct: gene COB; native tetramer (complex III dimer flanked by two complex IV), digitonin extract of mitochondria, FoF1-ATPase removed, sucrose gradient; no tag on the supercomplex; with Cytochrome b-c1 complex subunit 2, mitochondrial; Cytochrome b-c1 complex subunit 6, mitochondrial; Cytochrome b-c1 complex subunit 9, mitochondrial; Cytochrome b-c1 complex subunit 10, mitochondrial; Cytochrome c oxidase subunit 2; Cytochrome c oxidase subunit 3; Cytochrome c oxidase subunit 4, mitochondrial; Cytochrome c oxidase subunit 5A, mitochondrial; Cytochrome c oxidase subunit 6, mitochondrial; Cytochrome c oxidase subunit 7, mitochondrial; Cytochrome c oxidase subunit 8, mitochondrial; Cytochrome c oxidase subunit 9, mitochondrial; Cytochrome c oxidase subunit 12, mitochondrial; Cytochrome c oxidase subunit 13, mitochondrial; Cytochrome c oxidase subunit 26, mitochondrial

[4] = molecular target: complex III2 (CIII, dimer of cytochrome bc1) of the wild type S. cerevisiae respiratory supercomplex (S. cerevisiae (endogenous in strain USY00b)) (UniProt P07256); test: cryo-EM structure; WT tetrameric SC (IV1III2IV1) purified by sucrose gradient in digitonin, diluted 1:9 in 15 mM Tris-HCl pH 7.2, 20 mM KCl; Titan Krios 300 kV; 3.2 Å
[5] = system: T1, CRD1∆ SC (III2IV1 trimeric respiratory supercomplex); test: cryo-EM structure […] Å; assay type: binding, Saccharomyces cerevisiae; settings: Qi sites of complex III only (Cob); endogenous
[6] = system: T2, WT SC (IV1III2IV1; III2IV2 tetrameric respiratory supercomplex); test: cryo-EM structure […] Å; assay type: binding, Saccharomyces cerevisiae; settings: Qi and Qo sites of complex III; Cob, Rip1 His181 (Qo); copurified endogenous
Cor1, subunit of CIII = molecular target: T3, Cor1, subunit of CIII (S. cerevisiae (endogenous in strain …, UniProt P07256 27-457)); test: cryo-EM structure; WT tetrameric SC (IV1III2IV1) purified by sucrose gradient in digitonin, diluted 1:9 in 15 mM Tris-HCl pH 7.2, 20 mM KCl; Titan Krios 300 kV; 3.2 Å; settings: both partners purified
T3 construct: Cor1, subunit of complex III, S. cerevisiae; source: endogenous, mitochondria of S. cerevisiae strain USY00b; within the purified III2IV2 SC (sucrose gradient)
T3 sequence (looked up): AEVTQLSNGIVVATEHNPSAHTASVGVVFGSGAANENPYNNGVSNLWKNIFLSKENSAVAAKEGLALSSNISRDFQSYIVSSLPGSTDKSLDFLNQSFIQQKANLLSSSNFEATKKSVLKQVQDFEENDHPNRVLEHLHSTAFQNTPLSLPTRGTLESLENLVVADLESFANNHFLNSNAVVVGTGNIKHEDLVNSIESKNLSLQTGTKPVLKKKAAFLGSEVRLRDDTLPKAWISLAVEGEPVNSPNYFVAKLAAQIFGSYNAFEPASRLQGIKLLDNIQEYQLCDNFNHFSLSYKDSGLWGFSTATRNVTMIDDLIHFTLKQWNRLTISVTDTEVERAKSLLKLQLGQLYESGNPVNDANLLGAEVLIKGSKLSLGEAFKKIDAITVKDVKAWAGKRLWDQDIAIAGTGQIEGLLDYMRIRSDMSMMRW

Molecule: complex III2 (CIII) of the trimeric supercomplex (III2IV1) from the cardiolipin-lacking CRD1∆ S. cerevisiae mutant (from UniProt P07256 27-457; P00163 1-385; P07143 62-309; P08067 31-215; P00128 1-127; P08525 1-94; P22289 1-66)
- stoichiometry N [1]: 2

Molecule: CCCCCCCCCCc1c(C)c(O)c(OC)c(OC)c1O [reduced decylubiquinone]
- oxygen consumption, Oroboros respirometry [2]: Due to limited amounts of the ∆CRD1 SC, only one determination was possible
- oxygen consumption, Oroboros respirometry [3]: purified WT SC supplemented with Cyt c and reduced decylubiquinone (DQH2) also displayed similar activity

Molecule: complex III2 (CIII, dimer of cytochrome bc1) of the wild type S. cerevisiae respiratory supercomplex (from UniProt P07256 27-457; P00163 1-385; P07143 62-309; P08067 31-215; P00128 1-127; P08525 1-94; P22289 1-66; P37299 1-77)
- stoichiometry N [4]: 2

Molecule: COC1=C(OC)C(=O)C(C/C=C(\C)CC/C=C(\C)CC/C=C(\C)CC/C=C(\C)CC/C=C(\C)CCC=C(C)C)=C(C)C1=O [UQ6]
- cryo-EM structure 3.3 Å [5]: Densities for UQ6 were found only at Qi sites
- cryo-EM structure 3.2 Å [6]: four UQ6 ligands were placed into the map, two in each monomer of CIII

B1: Cox5a, subunit of CIV (natural protein, UniProt P00424 21-153, looked up)
chain: AQTHALSNAAVMDLQSRWENMPSTEQQDIVSKLSERQKLPWAQLTEPEKQAVWYISYGEWGPRRPVLNKGDSSFIAKGVAAGLLFSVGLFAVVRMAGGQDAKTMNKEWQLKSDEYLKSKNANPWGGYSQVQSK
notes: Cox5a, subunit of complex IV, S. cerevisiae; source: endogenous, mitochondria of S. cerevisiae strain USY00b; within the purified III2IV2 SC (sucrose gradient)
- binding result (Cor1, subunit of CIII): binds

From PMC10185535, “Structural insights into cardiolipin replacement by phosphatidylglycerol in a cardiolipin-lacking yeast respiratory supercomplex” (Nature Communications, 2023)
